Assay results: US10183079B2, “Hydrogel microspheres containing peptide ligands for growth factor regulation in blood products” (Wisconsin Alumni Research Foundation, priority 2016, dated 2019)
Square brackets hold non-standard residues; d marks the D form. Primed or numbered codes have the meaning given here. Ends that are not written are not given here. PEG27′ = polyethylene glycol 27 spacer; βAla = NCCC(=O)O

How the values were obtained:
[1] = system: choroidal neovascularization; assay: Mouse choroidal neovascularization model; assay type: in vivo; details: 2 μL/eye
Procedure: Microspheres (generated via sonication) were sanitized either by washing in 70% ethanol or by exposing to UV for 30 minutes prior to injection. Microspheres (F-VBP, F-Scramble, N-VBP, and N-Scramble) were suspended at 2 mg/mL in sterile PBS on the day of experiments. Soluble VBP or Scramble peptide (purchased from GenScript) were dissolved, sterile filtered through 0.2 μm filter, and diluted to 20 μg/mL in sterile PBS before experiments. SU4312 (Sigma) was dissolved in DMSO at 5 μg/mL, and Eylea (Regeneron Pharmaceuticals) was dissolved in PBS at 40 μg/mL and sterile filtered through 0.2 μm filter.
The mouse choroidal neovascularization model was generated as described in FIG. 8A. Briefly, C57BL/6J mice (Jackson Laboratories; 6-weeks old female) eyes were dilated using a drop of tropicamide (1%), and mice were anesthetized with ketamine and xylazine. Mice were subjected to photocoagulation (75 μm spot size, 0.1 s duration, 120 mW) at the 3-, 9-, and 12-o'clock positions of the posterior pole of the eye using an OcuLight GL diode laser (Iridex) with a glass coverslip over the eye. Microspheres were injected into each eye (2 μL/eye) using a pump microinjection apparatus (Harvard Apparatus) or Hamilton syringe. […] The area of ICAM-2+ staining (defined as mean CNV area) at each position (3-, 9-, and 12-o'clock) was quantified using Fiji and automated image thresholding. […]

iPSC-EC = iPSC-EC proliferation, xCELLigence cell index; assay type: cell-based; details: 5 ng/mL VEGF, 48-hour culture; for iPSC-EC proliferation (cell index): soluble peptide
Procedure: Soluble branched VBP containing a PEG-27 spacer (C{βA}K({βA}{PEG-27}KSAPYEWNFDI{Ld}{Yd}{Ad}{Fd}E)2 (SEQ ID NO:10) was synthesized as described above using fmoc solid-phase peptide synthesis, wherein each amino acid after the branch point was added at 8 molar excess relative to the resin free amines with a corresponding 8 molar excess of DIPEA and 4 molar excess of HBTU during the coupling reaction. Peptide purity was assessed using reverse-phase high performance liquid chromatograph, and peptide identity was assessed using matrix-assisted laser desorption time-of-flight spectrometry. Peptide content was assessed using Ellman's assay for free thiol, and both soluble branched VBP2, PEG-27 and VBP2,a were dissolved in PBS for use in cell culture assay. The influence of soluble branched peptides on iPSC-EC proliferation was established using ACEA xCELLigence RTCA-DP. iPSC-EC used in this Example were cultured in iCell-EC Growth Medium (as described in Example 1 above), were passaged using TrypLE, and were used between passage 4-8 for experiments. E-plates (containing gold electrodes on the bottom of each well) were first coated with Fibronectin (Corning) and were seeded with iPSC-EC at a density of 6000 cells/cm^2. Seeded E-plates were cultured on RTCA-DP overnight in Growth Medium, and on the day of experiments, medium was removed and replaced with medium containing 0.1 vol % supplement (CDI) in VascuLife (LifeLine) and L-glutamine (LifeLine) and containing 5 ng/mL VEGF (LifeLine) and the specified concentrations of either VBP2, PEG-27 or VBP2,a. iPSC-EC proliferation was assessed by monitoring the cell index (indicating cell coverage over the gold-coated wells) over a 48-hour period in culture, and at the end of the 48-hour culture, cell indices were averaged for two replicate wells per condition. Statistical analysis at the end of the experiment was performed using two-way analysis of variance (ANOVA) and Tukey's post-hoc test for α=0.05.

Cc1cc(C)c(/C=C2\C(=O)Nc3ccccc32)[nH]1 [SU5416]
mean CNV area, small-molecule inhibitor ([1]; 5 μg/mL in DMSO, vehicle control): inhibit angiogenesis in this model

(E{Fd}{Ad}{Yd}{Ld}IDFNWEYPASK)2KC (E[dF][dA][dY][dL]IDFNWEYPASKE[dF][dA][dY][dL]IDFNWEYPASKKC-NH2; also: branched dimer: two arms on K33) [VBP2,a]
iPSC-EC proliferation (cell index) at 5 μM (iPSC-EC; 5 μM soluble peptide): inhibited proliferation at a much greater extent than the VBP2, PEG27
iPSC-EC proliferation (cell index) (iPSC-EC): inhibited iPSC-EC proliferation in culture with VEGF

C{βA}K({βA}{PEG-27}KSAPYEWNFDI{Ld}{Yd}{Ad}{Fd}E)2 (C[βAla]K[βAla][PEG27′]KSAPYEWNFDI[dL][dY][dA][dF]E[βAla][PEG27′]KSAPYEWNFDI[dL][dY][dA][dF]E; not fully specified (C-terminus); numbers in words are those of the source; also: branched dimer: two arms on K3) [VBP2, PEG27]
iPSC-EC proliferation (cell index) (iPSC-EC): inhibited iPSC-EC proliferation in culture with VEGF

Eylea: commercial anti-angiogenesis compound (Regeneron Pharmaceuticals), soluble VEGF inhibitor protein
mean CNV area, Eylea ([1]; 40 μg/mL, control IgG): inhibit angiogenesis in this model
